Results reported in patent US10131652B2, “Pyrimidinyloxy benzene derivatives as herbicides” (E. I. DU PONT DE NEMOURS AND COMPANY, priority 2014, dated 2018).

Assays:
Format in all cases: in vivo
[1] = test system: barnyardgrass (Echinochloa crus-galli); experiment: Test B pre-/postemergence plant response; conditions: for Barnyardgrass plant response rating: 0 to 100 scale (0 no effect, 100 complete control)
Outline: (§1)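 Seeds in loam–sand blend given preemergence soil spray; separately, plants at one- to two-leaf stage (2–10 cm) sprayed postemergence, compounds in non-phytotoxic solvent with surfactant. Injury rated visually versus untreated controls after ~10 days in greenhouse, 0 (no effect) to 100 (complete control).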

[2] = test system: corn (Zea mays); experiment: Test B pre-/postemergence plant response; conditions: for Corn plant response rating: 0 to 100 scale (0 no effect, 100 complete control)
Outline: as §1

[3] = test system: giant foxtail (Setaria faberii); experiment: Test B pre-/postemergence plant response; conditions: for Foxtail, Giant plant response rating: 0 to 100 scale (0 no effect, 100 complete control)
Outline: as §1

[4] = test system: velvetleaf (Abutilon theophrasti); experiment: Test B pre-/postemergence plant response; conditions: for Velvetleaf plant response rating: 0 to 100 scale (0 no effect, 100 complete control)
Outline: as §1

[5] = test system: morningglory (Ipomoea spp.); experiment: Test B pre-/postemergence plant response; conditions: for Morningglory plant response rating: 0 to 100 scale (0 no effect, 100 complete control)
Outline: as §1

[6] = test system: large (Lg) crabgrass (Digitaria sanguinalis); experiment: Test B pre-/postemergence plant response; conditions: for Crabgrass, Large plant response rating: 0 to 100 scale (0 no effect, 100 complete control)
Outline: as §1

[7] = test system: wheat (Triticum aestivum); experiment: Test B pre-/postemergence plant response; conditions: for Wheat plant response rating: 0 to 100 scale (0 no effect, 100 complete control)
Outline: as §1

[8] = test system: pigweed (Amaranthus retroflexus); experiment: Test B pre-/postemergence plant response; conditions: for Pigweed plant response rating: 0 to 100 scale (0 no effect, 100 complete control)
Outline: as §1

[9] = test system: barnyardgrass (Echinochloa crus-galli); experiment: Test C flooded paddy test plant response; conditions: Flood, 250 g ai/ha; scale of 0 to 100 where 0 is no effect and 100 is complete control; 13 to 15 days
Outline: (§2)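 Water-applied treatment: compounds go directly into floodwater standing 3 cm over the soil of pots holding 2-leaf-stage plants. Depth is kept constant; plants stay in a greenhouse 13 to 15 days before visual comparison with controls on a 0–100 scale.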

[10] = test system: rice (Oryza sativa); experiment: Test C flooded paddy test plant response; conditions: Flood, 250 g ai/ha; scale of 0 to 100 where 0 is no effect and 100 is complete control; 13 to 15 days
Outline: as §2

[11] = test system: small-flower umbrella sedge (Cyperus difformis); experiment: Test C flooded paddy test plant response; conditions: Flood, 250 g ai/ha; scale of 0 to 100 where 0 is no effect and 100 is complete control; 13 to 15 days
Outline: as §2

[12] = test system: ducksalad (Heteranthera limosa); experiment: Test C flooded paddy test plant response; conditions: Flood, 250 g ai/ha; scale of 0 to 100 where 0 is no effect and 100 is complete control; 13 to 15 days
Outline: as §2

[13] = 125 g ai/ha, postemergence, 0 to 100 scale, 0 no effect, 100 complete control
[14] = 500 g ai/ha, postemergence, 0 to 100 scale, 0 no effect, 100 complete control
[15] = Preemergence, 500 g ai/ha, 0 to 100 scale where 0 is no effect and 100 is complete control

| Structure (SMILES) | Plant response rating, Barnyardgrass [1, 13] | Plant response rating, Barnyardgrass [1, 14] | Barnyardgrass plant response rating ([1]; Preemergence, 125 g ai/ha) | Plant response rating, Barnyardgrass [1, 15] | Plant response rating, Corn [2, 13] | Plant response rating, Corn [2, 14] | Corn plant response rating ([2]; Preemergence, 125 g ai/ha) | Plant response rating, Corn [2, 15] | Plant response rating, Foxtail, Giant [3, 13] | Plant response rating, Foxtail, Giant [3, 14] | Foxtail, Giant plant response rating ([3]; Preemergence, 125 g ai/ha) | Plant response rating, Foxtail, Giant [3, 15] | Plant response rating, Velvetleaf [4, 13] | Plant response rating, Velvetleaf [4, 14] | Velvetleaf plant response rating ([4]; Preemergence, 125 g ai/ha) | Plant response rating, Velvetleaf [4, 15] | Plant response rating, Morningglory [5, 13] | Plant response rating, Morningglory [5, 14] | Morningglory plant response rating ([5]; Preemergence, 125 g ai/ha) | Plant response rating, Morningglory [5, 15] | also measured |
| --- | --- | --- | --- | --- | --- | --- | --- | --- | --- | --- | --- | --- | --- | --- | --- | --- | --- | --- | --- | --- | --- |
| Clc1ccc(-c2ccc(Br)cc2Oc2ncc(Cl)cn2)nc1 [Compound 203] | 0 | 0 | 0 | 0 | 0 | 0 | 0 | 0 | 0 | 0 | 0 | 0 | 0 | 0 | 0 | 0 | 0 | 0 | 0 | 0 | Plant response rating, Crabgrass, Large [6, 13]: 0; Plant response rating, Crabgrass, Large [6, 14]: 0; Crabgrass, Large plant response rating ([6]; Preemergence, 125 g ai/ha): 0; Plant response rating, Crabgrass, Large [6, 15]: 0; Plant response rating, Wheat [7, 13]: 0; Plant response rating, Wheat [7, 14]: 0; Wheat plant response rating ([7]; Preemergence, 125 g ai/ha): 0; Plant response rating, Wheat [7, 15]: 0; Plant response rating, Pigweed [8, 13]: 0; Plant response rating, Pigweed [8, 14]: 0; Pigweed plant response rating ([8]; Preemergence, 125 g ai/ha): 0; Plant response rating, Pigweed [8, 15]: 0; Barnyardgrass plant response rating [9]: 0; Rice plant response rating [10]: 0; Sedge, Umbrella plant response rating [11]: 0; Ducksalad plant response rating [12]: 0 |
| N#Cc1cccc(Oc2ncc(Br)cn2)c1-c1ccc(Cl)cn1 [Compound 204] | 0 | 10 | 0 | 30 | 0 | 0 | 0 | 0 | 0 | 30 | 60 | 100 | 0 | 10 | 0 | 60 | 0 | 10 | 0 | 10 | Plant response rating, Crabgrass, Large [6, 13]: 10; Plant response rating, Crabgrass, Large [6, 14]: 40; Crabgrass, Large plant response rating ([6]; Preemergence, 125 g ai/ha): 90; Plant response rating, Crabgrass, Large [6, 15]: 100; Plant response rating, Wheat [7, 13]: 0; Plant response rating, Wheat [7, 14]: 0; Wheat plant response rating ([7]; Preemergence, 125 g ai/ha): 0; Plant response rating, Wheat [7, 15]: 0; Plant response rating, Pigweed [8, 13]: 50; Plant response rating, Pigweed [8, 14]: 90; Pigweed plant response rating ([8]; Preemergence, 125 g ai/ha): 100; Plant response rating, Pigweed [8, 15]: 100; Barnyardgrass plant response rating [9]: 0; Rice plant response rating [10]: 0; Sedge, Umbrella plant response rating [11]: 0; Ducksalad plant response rating [12]: 0 |
| Clc1ccc(-c2c(I)cccc2Oc2ncc(Cl)cn2)nc1 [Compound 205] | 0 | 10 | 0 | 10 | 0 | 10 | 0 | 0 | 0 | 20 | 20 | 70 | 0 | 10 | 0 | 0 | 0 | 10 | 0 | 0 | Plant response rating, Crabgrass, Large [6, 13]: 10; Plant response rating, Crabgrass, Large [6, 14]: 20; Crabgrass, Large plant response rating ([6]; Preemergence, 125 g ai/ha): 30; Plant response rating, Crabgrass, Large [6, 15]: 70; Plant response rating, Wheat [7, 13]: 0; Plant response rating, Wheat [7, 14]: 0; Wheat plant response rating ([7]; Preemergence, 125 g ai/ha): 0; Plant response rating, Wheat [7, 15]: 0; Plant response rating, Pigweed [8, 13]: 60; Plant response rating, Pigweed [8, 14]: 90; Pigweed plant response rating ([8]; Preemergence, 125 g ai/ha): 10; Plant response rating, Pigweed [8, 15]: 90; Barnyardgrass plant response rating [9]: 0; Rice plant response rating [10]: 0; Sedge, Umbrella plant response rating [11]: 0; Ducksalad plant response rating [12]: 0 |
| Fc1cnc(Oc2ccccc2-c2cc(C(F)(F)F)on2)nc1 [Compound 206] | 0 | 10 | 0 | 30 | 0 | 0 | 0 | 0 | 0 | 20 | 10 | 60 | 30 | 60 | 30 | 40 | 20 | 30 | 0 | 0 | Plant response rating, Crabgrass, Large [6, 13]: 10; Plant response rating, Crabgrass, Large [6, 14]: 20; Crabgrass, Large plant response rating ([6]; Preemergence, 125 g ai/ha): 10; Plant response rating, Crabgrass, Large [6, 15]: 60; Plant response rating, Wheat [7, 13]: 0; Plant response rating, Wheat [7, 14]: 0; Wheat plant response rating ([7]; Preemergence, 125 g ai/ha): 0; Plant response rating, Wheat [7, 15]: 0; Plant response rating, Pigweed [8, 13]: 40; Plant response rating, Pigweed [8, 14]: 70; Pigweed plant response rating ([8]; Preemergence, 125 g ai/ha): 50; Plant response rating, Pigweed [8, 15]: 80; Barnyardgrass plant response rating [9]: 0; Rice plant response rating [10]: 0; Sedge, Umbrella plant response rating [11]: 70; Ducksalad plant response rating [12]: 70 |
| N#Cc1cccc(Oc2ncc(F)cn2)c1-c1ccc(Cl)cn1 [Compound 207] | 0 | 70 | 10 | 90 | 0 | 0 | 0 | 0 | 0 | 30 | 70 | 100 | 10 | 60 | 0 | 30 | 10 | 30 | 0 | 30 | Plant response rating, Crabgrass, Large [6, 13]: 0; Plant response rating, Crabgrass, Large [6, 14]: 30; Crabgrass, Large plant response rating ([6]; Preemergence, 125 g ai/ha): 100; Plant response rating, Crabgrass, Large [6, 15]: 100; Plant response rating, Wheat [7, 13]: 0; Plant response rating, Wheat [7, 14]: 0; Wheat plant response rating ([7]; Preemergence, 125 g ai/ha): 0; Plant response rating, Wheat [7, 15]: 0; Plant response rating, Pigweed [8, 13]: 70; Plant response rating, Pigweed [8, 14]: 100; Pigweed plant response rating ([8]; Preemergence, 125 g ai/ha): 90; Plant response rating, Pigweed [8, 15]: 100; Barnyardgrass plant response rating [9]: 0; Rice plant response rating [10]: 0; Sedge, Umbrella plant response rating [11]: 30; Ducksalad plant response rating [12]: 30 |
| N#Cc1cccc(-n2cc(Br)cn2)c1Oc1ncc(Cl)cn1 [Compound 209] | 0 | 0 | 0 | 10 | 0 | 0 | 0 | 0 | 0 | 30 | 30 | 100 | 30 | 30 | 0 | 0 | 30 | 30 | 0 | 0 | Plant response rating, Crabgrass, Large [6, 13]: 10; Plant response rating, Crabgrass, Large [6, 14]: 30; Crabgrass, Large plant response rating ([6]; Preemergence, 125 g ai/ha): 70; Plant response rating, Crabgrass, Large [6, 15]: 100; Plant response rating, Wheat [7, 13]: 0; Plant response rating, Wheat [7, 14]: 0; Wheat plant response rating ([7]; Preemergence, 125 g ai/ha): 0; Plant response rating, Wheat [7, 15]: 0; Plant response rating, Pigweed [8, 13]: 90; Plant response rating, Pigweed [8, 14]: 100; Pigweed plant response rating ([8]; Preemergence, 125 g ai/ha): 90; Plant response rating, Pigweed [8, 15]: 100; Barnyardgrass plant response rating [9]: 0; Rice plant response rating [10]: 0; Sedge, Umbrella plant response rating [11]: 0; Ducksalad plant response rating [12]: 0 |
